Calls of active or inactive are those of the source. No cut-off for these calls is given here.
How the values were obtained:
[1] = species on record: Homo sapiens; experiment: Growth inhibition of HFLS isolated from rheumatoid arthritis patients after 48 hrs by WST-1 assay; assay type: functional
[2] = Induction of apoptosis in HFLS isolated from rheumatoid arthritis patients after 24 hrs using propidium iodide staining by flow cytometry relative to DNA content; assay type: functional, Homo sapiens
[3] = species on record: Homo sapiens; experiment: Induction of apoptosis in HFLS isolated from rheumatoid arthritis patients by TUNEL assay; assay type: functional
[4] = test system: Mus musculus; experiment: Antiarthritic activity in SKG mouse expressing human rheumatoid arthritis invasion of inflammatory cells assessed as reduction of laminarin-induced joint swelling at 135 mg/kg, iv administered 14 days after laminarin challenge every 2 days for 36 weeks; assay type: functional, organism-based; parameters: dose 135 mg/kg

Structure (SMILES)	growth inhibition (GI) [1]	Activity [2]	Activity [3]	Activity [4]
CCCCCCCCCCCCOCCOCCOCCOCCOCCOCCOCCOCCOCCOCCOCCOCCOCCOCCOCCOCCOCCOCCOCCOCCOCCOCCOCCOCCOCCO	Active	21.2%	Active	
CCCCCCCCCCCCOCCOCCOCCOCCOCCOCCOCCOCCOCCOCCOCCOCCOCCOCCOCCOCCOCCOCCOCCOCCOCCOCCOCCO	Active	24.8%	Active	Active
CCCCCCCCCCCCOCCOCCOCCOCCOCCOCCOCCOCCOCCOCCOCCOCCOCCOCCOCCOCCOCCOCCOCCOCCOCCO	Active	20.9%	Active	
